Structures are written as SMILES.

For orientation: Ki means the equilibrium dissociation constant of an inhibitor or competing ligand from its target.

The test addresses T1, cathepsin K (Homo sapiens, UniProt P43235).
T1 sequence (P43235 115-329): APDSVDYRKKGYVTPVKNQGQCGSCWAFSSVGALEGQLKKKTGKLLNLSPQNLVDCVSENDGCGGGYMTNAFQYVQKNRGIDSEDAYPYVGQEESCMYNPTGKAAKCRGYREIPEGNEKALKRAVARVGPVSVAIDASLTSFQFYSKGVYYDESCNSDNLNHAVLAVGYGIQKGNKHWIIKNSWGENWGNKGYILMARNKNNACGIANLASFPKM
In words: Determination of cathepsin K proteolytic catalytic activity; inhibition studies (progress curve method). It is filed as biochemical. The following applies: human recombinant enzyme, fluorogenic substrate Cbz-Phe-Arg-AMC, pH 5.5. On the procedure: Determination of cathepsin K proteolytic catalytic activity
All assays for cathepsin K were carried out with human recombinant enzyme. Standard assay conditions for the determination of kinetic constants used a fluorogenic peptide substrate, typically Cbz-Phe-Arg-AMC, and were determined in 100 mM Na acetate at pH 5.5 containing 20 mM cysteine and 5 mM EDTA. Stock substrate solutions were prepared at concentrations of 10 or 20 mM in DMSO with 20 uM final substrate concentration in the assays. All assays contained 10% DMSO. […] All assays were conducted at ambient temperature. Product fluorescence (excitation at 360 nm; emission at 460 nm) was monitored with a Perceptive Biosystems Cytofluor II fluorescent plate reader. […]
Potential inhibitors were evaluated using the progress curve method. […] For those compounds whose progress curves were linear, apparent inhibition constants (Ki,app) were calculated according to equation 1 (Brandt et al., Biochemitsry, 1989, 28, 140): […]
[AMC]=νSSt+(ν0−νSS) [I−exp(−kobst)]/kobs (2) where [AMC] is the concentration of product formed over time t, ν0 is the initial reaction velocity and νSS is the final steady state rate. Values for kobs were then analyzed as a linear function of inhibitor concentration to generate an apparent second order rate constant (kobs/inhibitor concentration or kobs/[1]) describing the time-dependent inhibition. […]

As to `CC(C)C[C@H](NS(=O)(=O)c1cccc2cccnc12)C(=O)NC1COCC1=O` (mixture of isomers) [4-(R,S)-Amino-N-[(8-quinolinesulfonyl)-S-leucine]-3-tetrahydrofuran-3-one], the Ki was > 10 µM.

These data come from patent US20040180927A1, “Inhibitors of cysteine protease” (SmithKline Beecham Corporation, priority 1996, published 2004).
